Article PMC11718471 (World Journal of Diabetes, 2025)

Columns and labels:
[1] = Plasma IAsp exposure during 8-hour euglycemic clamp; type: in vivo, human; settings: healthy subjects, 0.2 IU/kg s.c., group A (basal BG < 4.00 mmol/L, target BG 2.5% below baseline), before PSM, n = 15, LC-MS/MS, trapezoidal, mean ± SD
blood glucose = assay: Euglycemic clamp, glucose infusion rate; type: in vivo, human; settings: healthy subjects, 0.2 IU/kg s.c., 8-hour euglycemic clamp, 20% dextrose, group A (target BG 2.5% below baseline), n = 15, mean ± SD

Q: Which results are given for insulin aspart [IAsp]?
A: AUCIAsp, 0-8 h [1]: 566 ± 51 ng·h/mL; AUCGIR, 0-8 h (blood glucose; after PSM): 1433 ± 400 mg/kg; AUCGIR, 0-8 h (blood glucose; before PSM): 1433 ± 400 mg/kg
